Reference: patent publication US7745465B2, “Method of enhancing cellular production of molecular chaperone, hydroxylamine derivatives useful for enhancing the chaperone production and the preparation thereof” (CytRx Corporation, priority 1995, dated 2010)

Key:
[1] = system: Hsp72; test: Heat stress induced hsp72 expression in rat testicular explant; format: cell-based; conditions: 10^−5 M, 15 min. before 43° C. 30 min.
Experimental: Testis of CFY rats weighing of 200 g were removed in sterile conditions and the released testicular tubuli were suspended in 10% fetal bovine serum containing MEM culture medium in that way that five ml suspension contained 50-100 mg tissue. The explants were incubated in 5% CO2 containing humidified air at 37° C. for one hour, then the cultures were treated with 10^−5 M concentration of the tested compounds. After a further incubation for 15 min. at 37° C., explants were exposed to heat shock at 43° C. for 30 min. The amount of the induced hsp72 was measured after a further 6 hours incubation at 37° C.

[2] = system: Male Sprague-Dawley rats; test: Protection against cardiac ischaemia: survival after 5 minutes coronary occlusion and reperfusion; format: in vivo, rat; conditions: i.v. 1 mg/kgbw, 5 min. before the occlusion; non-treated control 10
Experimental: Male Sprague-Dawley rats (380-450 g b.w.) were anaesthetized with sodiumpentobarbital (Nembutal 60 mg/kg body weight, i.p.) and artificially ventilated with room air (2 ml/100 g; 54 stroke/minutes) via tracheotomy. The right carotid artery was catheterized and connected to a pressure transducer (BPR-01, Stoelting) for the measurement of systemic arterial blood pressure (BP) by means of a preamplifier (Hg-02, Experimetria). Hydroxylamine derivatives disclosed in Example 5 were administered via the venous cannule to jugular vein (i.v.) and orally (p.o.). Heart rate (HR) was measured by a cardiotachometer (HR-01, Experimetria). The electrocardiogram (ECG standard lead II) was recorded on a devices recorder (MR-12, Medicor) by means of subcutaneous steel needles electrodes. The chest was opened by a left thoracotomy and the heart was exteriorized by a gentle pressure on the right side of the rib cage. A 4-0 silk suture was quickly placed under the main left coronary artery as described by Selye et al. (1960). The heart was carefully replaced in the chest and the animal left to recover. Rectal temperature was monitored and kept constant at 37 C. The experimental protocol was initiated with a 15 minute stabilization period during which the observation of a sustained blood pressure less than 70 mmHg and or the occurrence of anhythmia led to exclusion. Myocardial ischemia was induced with coronary occlusion for 5 minutes and reperfusion allowed for 10 minutes.
During the entire experiment BP, HR and ECG were continuously registered on a multiscriptor (R61-6CH, Medicor). Hydroxylamine derivatives, the tautomeric forms of which are represented by structures (I) and (II), were administered 5 to 60 minutes before the occlusion after i.v. and p.o. treatment, respectively. […]
The mean duration of ventricular tachycardia (VT) and/or ventricular fibrillation (VF) during the first 3 minutes of reperfusion was analyzed by one-way analysis of variance. The incidence of VF was analyzed using a chi-square test. […] The haemodynamic variables were analyzed using Student's “t”-test. The critical level of significance was set at p<0.05. All results were expressed as a means±S.E.M. Drugs were administered i.v. in a dose of 1 mg/kgbw 5 min. before the occlusion.
The hydroxylamine derivatives that are found to be particularly advantageous for protecting an animal against ischemic/reperfusion injury are listed below. Survival (%) indicates the percent of animals survived the effects of 5 minutes coronary occlusion.

[3] = system: HSP72; test: Heat stress induced HSP72 production in 3T3 cells; format: cell-based, mouse; conditions: 10^−5 M
Experimental: From the applied cells the 3T3 and L-929 mouse fibroblasts were cultured in MEM medium and grew in monolayer, the U-937 human leukemia cells were maintained in RPMI-1640 medium, in suspension culture, while the HeLa human epithelial cells were cultured in DMEM medium and in monolayer form. Cell cultures were maintained as described in example 6.2 (a) with the difference that cells were cultured in the above mentioned culture mediums.
Experiments were carried out applying stress before and after the drug treatment. Stress was provoked by heat, by chemical agent, HgCl2 treatment. The test compounds were applied in the treatments at the 10^−5 M concentration.
The experiments on 3T3 cell applying heat stress were performed as described in the 6.2. (c) point of example 6, with the difference that stress was induced by a 30 min. exposure at 43° C. temperature and treatment with the test compounds was performed 15 min. before or 100 min. after the heat stress.
Immunodetection was carried out using the HSP72 specific SPA 810 (StressGene) primary and the horse-radish peroxidase conjugated A9044 (Sigma) secondary antibodies. Densitometric evaluation was performed by a LKB Ultrascan XL densitometer.

[4] = system: Hsp72; test: Heat stress induced hsp72 expression in rat spleen explant; format: cell-based; conditions: 10^−5 M, 15 min. before 43° C. 30 min.
Experimental: These experiments were performed on rat spleen and testicular tissue explants applying heat stress after treatment with the experimental compounds. Experiments on spleen suspension were carried out as follows.
Spleens of CFY rats weighing 200 g were removed aseptically, and were homogenized in 10% fetal bovine serum containing MEM culture medium. The concentration of the cell suspension was adjusted to 50-100 mg/5 ml.
Five ml cell suspension was given into each of the culture dishes of 6 cm of diameter and the explants were incubated for one hour in a 5% CO2 containing humidified air at 37° C. then cultures were treated with the 10^−5 M concentration of the test compounds. After further 15 min. incubation at 37° C. the cultures were exposed to heat shock at 43° C. for 30 min. in an incubator. The amount of the induced hsp72 was measured after a further 6 hours incubation at 37° C.

[5] = system: GRP-94; test: Level of GRP-94 in STZ diabetic rat liver (Western blot); format: in vivo
[6] = treatment 15 min. before 30 min. 43° C. heat stress
[7] = treatment 100 min. after 30 min. 43° C. heat stress

melting point	Compound	Level of hsp72 relative to the stress exposed control [1]	other results
147 to 149.5 °C	Cl.OC(CNC1CCCCC1)CON=C(Cl)c1cccc(C(F)(F)F)c1 (centres unmarked)		
168 to 172 °C	Cl.OC(CON=C(Cl)c1nccc2ccccc12)CN1CCCCC1 (centres unmarked)		
91 to 94 °C	Cl.N=C(NOCC(CN1CCCCC1)OC(=O)c1ccccc1Cl)c1cccnc1 (centres unmarked)		
116 to 119 °C	Cl.N=C(NOCCCN1CCCCC1)c1cccc(C(F)(F)F)c1		
207 to 209 °C	COc1ccc(CC(=N)NOCCCN2CCCCC2)cc1OC.Cl.Cl		
127 to 130 °C	CN1CCN(CCCONC(=N)c2cccnc2)CC1.Cl		
158 to 162 °C	Cl.N=C(NOCCCN1CCCCC1)c1cccc([N+](=O)[O-])c1		
207 to 209 °C	Cl.Cl.N=C(NOCCCN1CCCCC1)c1ccccc1		
184 to 189 °C	Cl.Cl.N=C(NOCC(O)CN1CCCCC1)c1ccc([N+](=O)[O-])cc1 (centres unmarked)		
157 to 170 °C	Cl.Cl.N=C(NOCC(O)CN1CCCCC1)c1cccs1 (centres unmarked)		
200 to 208 °C	Cl.Cl.N=C(NOCC(O)CN1CCCCC1)c1ccccc1[N+](=O)[O-] (centres unmarked)		
130 to 134 °C	Cl.OC(CONC(=NC1CCCCC1)c1cccnc1)CN1CCCCC1 (centres unmarked)		
180 to 182 °C	Cl.O=[N+]([O-])c1ccc(C(Cl)=NOCC(O)CN2CCCCC2)cc1 (centres unmarked)		
121 to 128 °C	CCN(CC)CC(O)CON=C(Cl)c1cccc(C(F)(F)F)c1.Cl (centres unmarked) [Example 12, N-[3-(diethylamino)-2-hydroxypropoxy]-3-trifluoromethyl-benzenecarboximidoyl chloride monohydrochloride]	+ (21-50%)	
69 to 73.5 °C	CCCCCCCCCCCCCCCC(=O)OC(CON=C(Cl)c1cccnc1)CN1CCCCC1.Cl.Cl (centres unmarked) [Example 23, N-[2-palmitoyloxy-3-(1-piperidinyl)propoxy]-3-pyridinecarboximidoyl chloride dihydrochloride]	+ + +	

The next lines start with the compound.

Compound	melting point	Level of hsp72 relative to the stress exposed control [1]	other results
N=C(NOCC(CN1CCCCC1)OC(=O)c1ccco1)c1cccnc1.O=C(O)/C=C\C(=O)O (centres unmarked)	167 to 171.5 °C		
Cl.O=[N+]([O-])c1cccc(C(Cl)=NOCC(O)CN2CCCCC2)c1 (centres unmarked) [Example 4, N-[2-hydroxy-3-(1-piperidinyl)propoxy]-3-nitro-benzenecarboximidoyl chloride monohydrochloride]		+ (21-50%)	Survival (%) [2]: 50%
Cl.O=[N+]([O-])c1ccccc1C(Cl)=NOCC(O)CN1CCCCC1 (centres unmarked) [Example 6, N-[2-hydroxy-3-(1-piperidinyl)propoxy]-2-nitro-benzenecarboximidoyl chloride monohydrochloride]		+ +	HSP72 level relative to the stress exposed control [3, 6]: +++ (>100%); HSP72 level relative to the stress exposed control [3, 7]: 0 (0 indicates that the treatment altered by ±20% the stress induced hsp72 level in the cells); Survival (%) [2]: 100%
CC(C)(C)NCC(O)CON=C(Cl)c1cccc(C(F)(F)F)c1.Cl (centres unmarked) [Example 9, N-[3-[(1,1-Dimethylethyl)amino]-2-hydroxypropoxy]-3-trifluoromethylbenzene-carboximidoyl chloride monohydrochloride]		+ (21-50%)	Survival (%) [2]: 100%
O=C(O)/C=C\C(=O)O.O=C(OC(CON=C(Cl)c1cccnc1)CN1CCCCC1)c1ccccc1 (centres unmarked) [Example 21, N-[2-benzoyloxy-3-(1-piperidinyl)propoxy]-3-pyridinecarboximidoyl chloride (Z)-2-butenedioate (1:1)]	134 to 136 °C	+ +	
CCCCCCCCCCCCCCCC(=O)OC(CONC(=N)c1cccnc1)CN1CCCCC1.Cl (centres unmarked) [Example 22, N-[2-palmitoyloxy-3-(1-piperidinyl)propoxy]-3-pyridinecarboximidamide monohydrochloride]		0 (0 indicates that the treatment altered by ±20% the stress induced hsp72 level in the cells)	HSP72 level relative to the stress exposed control [3, 6]: +++ (>100%); HSP72 level relative to the stress exposed control [3, 7]: + (21-50%); Survival (%) [2]: 100%
CC(=O)Nc1ccc(C(N)=NOCC(O)CN2CCCCC2)cc1.Cl (centres unmarked) [Example 39]		0 (0 indicates that the treatment altered by ±20% the stress induced hsp72 level in the cells)	Survival (%) [2]: 60%
CCCCCCCNC(=O)NOCC(O)CN1CCCCC1 (centres unmarked) [Example 55, N-[2-hydroxy-3-(1-piperidinyl)propoxy]-N′-heptyl-urea]		+ +	Level of hsp72 relative to the stress exposed control [4]: +++ (>100%)
O=C(NOCC(O)CN1CCCCC1)Nc1cccc(Cl)c1 (centres unmarked) [Example 59, N-(3-chlorophenyl)-N′-[2-hydroxy-3-(1-piperidinyl)propoxy]-urea]			HSP72 level relative to the stress exposed control [3, 6]: +++ (>100%); Level of hsp72 relative to the stress exposed control [4]: +++ (>100%)
CC(C)(C)NCC(O)CONC(=O)c1cccc(C(F)(F)F)c1 (centres unmarked) [Example 65]		0 (0 indicates that the treatment altered by ±20% the stress induced hsp72 level in the cells)	Level of hsp72 relative to the stress exposed control [4]: + (21-50%); Survival (%) [2]: 78%
Cl.Cl.ClC(=NOCCCN1CCCCC1)c1cccnc1 [Example 78, N-(3-piperidino-1-propoxy)-3-pyridinecarboximidoyl chloride dihydrochloride]		+ +	HSP72 level relative to the stress exposed control [3, 6]: +++ (>100%); Survival (%) [2]: 100%
CN(OCCCN1CCCCC1)C(=O)c1ccccc1.Cl [N-methyl-N-[3-(1-piperidinyl)-propoxy]-benzamide hydrochloride]		+ (21-50%)	HSP72 level relative to the stress exposed control [3, 6]: + (21-50%)
CCN(CC)CCCON=C(Cl)c1cccnc1.Cl [O-(3-diethylamino-propoxy)-3-pyridine-carboximidoyl-chloride hydrochloride]		0 (0 indicates that the treatment altered by ±20% the stress induced hsp72 level in the cells)	HSP72 level relative to the stress exposed control [3, 6]: +++ (>100%)
insulin: Insulin (Protophane HM inj.) [reference compound]			levels of GRP-94 compared to the control state ([5]; insulin alone, 1 week and 2-weeks samples): almost doubled; relative amount of GRP-94 ([5]; rats diabetic for 4 weeks, insulinized, not treated with the compound): recovery of GRP-94 to the control level
